Data published in PMC11233931, “Remodeling tumor‐associated macrophage for anti‐cancer effects by rational design of irreversible inhibition of mitogen‐activated protein kinase‐activated protein kinase 2” (MedComm, 2024).

Assays:
Experiment in all cases: Eurofins kinase selectivity profile against 380 other human recombinant kinases (Table S2)
Assay type in all cases: biochemical
[1] = target: T1, 380 human recombinant protein kinases (Homo sapiens, UniProt P00519, T315I); conditions: Abl(T315I)(h), read-out: Inhibition rate
T1 construct: purchased Eurofins (Celle Lévescault)
How it was run: (§1)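 Commercial selectivity screen of the test compound against a panel of 380 human recombinant protein kinases, run by an outside contractor at several compound concentrations to check whether its potency was specific for MK2.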

[2] = target: T2, 380 human recombinant protein kinases (Homo sapiens, UniProt Q9UQ07); conditions: MOK(h), read-out: Inhibition rate
T2 construct: purchased Eurofins (Celle Lévescault)
T2 sequence (Q9UQ07 1-419): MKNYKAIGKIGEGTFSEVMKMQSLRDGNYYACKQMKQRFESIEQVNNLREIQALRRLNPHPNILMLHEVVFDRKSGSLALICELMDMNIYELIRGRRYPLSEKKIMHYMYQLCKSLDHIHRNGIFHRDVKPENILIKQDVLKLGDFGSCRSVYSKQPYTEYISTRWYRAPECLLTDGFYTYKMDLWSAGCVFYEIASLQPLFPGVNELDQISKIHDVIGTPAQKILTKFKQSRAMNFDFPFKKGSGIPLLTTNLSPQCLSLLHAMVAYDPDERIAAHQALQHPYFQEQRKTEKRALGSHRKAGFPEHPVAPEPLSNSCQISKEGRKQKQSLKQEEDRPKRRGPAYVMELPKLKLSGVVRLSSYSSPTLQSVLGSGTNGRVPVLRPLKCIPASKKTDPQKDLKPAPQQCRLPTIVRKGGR
How it was run: as §1

[3] = target: T3, 380 human recombinant protein kinases (Homo sapiens, UniProt Q15139); conditions: PKCμ(h), read-out: Inhibition rate
T3 construct: purchased Eurofins (Celle Lévescault)
T3 sequence (Q15139 1-912): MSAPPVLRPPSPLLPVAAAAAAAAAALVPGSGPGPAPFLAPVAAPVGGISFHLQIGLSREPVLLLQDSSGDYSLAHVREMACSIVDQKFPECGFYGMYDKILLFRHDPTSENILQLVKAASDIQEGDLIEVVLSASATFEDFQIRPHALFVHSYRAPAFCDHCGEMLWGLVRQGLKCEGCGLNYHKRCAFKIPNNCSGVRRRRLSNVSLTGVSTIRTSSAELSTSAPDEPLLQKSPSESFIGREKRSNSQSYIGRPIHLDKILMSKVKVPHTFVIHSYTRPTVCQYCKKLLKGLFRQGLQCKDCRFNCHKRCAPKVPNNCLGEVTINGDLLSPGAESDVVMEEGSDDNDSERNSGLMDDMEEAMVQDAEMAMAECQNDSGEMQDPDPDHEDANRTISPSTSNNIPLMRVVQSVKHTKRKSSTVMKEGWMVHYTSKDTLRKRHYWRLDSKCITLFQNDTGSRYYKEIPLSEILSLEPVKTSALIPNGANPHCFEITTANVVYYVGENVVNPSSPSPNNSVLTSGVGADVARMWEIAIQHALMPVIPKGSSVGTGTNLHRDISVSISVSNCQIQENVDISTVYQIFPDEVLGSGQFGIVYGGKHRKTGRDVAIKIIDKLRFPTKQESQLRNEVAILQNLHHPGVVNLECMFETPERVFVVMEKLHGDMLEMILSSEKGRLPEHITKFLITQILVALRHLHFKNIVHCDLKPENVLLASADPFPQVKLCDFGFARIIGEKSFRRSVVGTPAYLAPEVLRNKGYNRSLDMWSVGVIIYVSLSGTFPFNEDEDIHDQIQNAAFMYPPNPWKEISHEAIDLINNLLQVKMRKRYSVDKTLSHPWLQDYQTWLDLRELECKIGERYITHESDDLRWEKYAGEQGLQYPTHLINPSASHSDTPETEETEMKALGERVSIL
How it was run: as §1

[4] = target: T4, 380 human recombinant protein kinases (Homo sapiens, UniProt Q86UX6); conditions: STK32C(h), read-out: Inhibition rate (%)
T4 construct: purchased Eurofins (Celle Lévescault)
How it was run: as §1

[5] = target: T5, 380 human recombinant protein kinases (Homo sapiens, UniProt Q96BR1); conditions: SGK3(h), read-out: Inhibition rate (%)
T5 construct: purchased Eurofins (Celle Lévescault)
T5 sequence (Q96BR1 1-496): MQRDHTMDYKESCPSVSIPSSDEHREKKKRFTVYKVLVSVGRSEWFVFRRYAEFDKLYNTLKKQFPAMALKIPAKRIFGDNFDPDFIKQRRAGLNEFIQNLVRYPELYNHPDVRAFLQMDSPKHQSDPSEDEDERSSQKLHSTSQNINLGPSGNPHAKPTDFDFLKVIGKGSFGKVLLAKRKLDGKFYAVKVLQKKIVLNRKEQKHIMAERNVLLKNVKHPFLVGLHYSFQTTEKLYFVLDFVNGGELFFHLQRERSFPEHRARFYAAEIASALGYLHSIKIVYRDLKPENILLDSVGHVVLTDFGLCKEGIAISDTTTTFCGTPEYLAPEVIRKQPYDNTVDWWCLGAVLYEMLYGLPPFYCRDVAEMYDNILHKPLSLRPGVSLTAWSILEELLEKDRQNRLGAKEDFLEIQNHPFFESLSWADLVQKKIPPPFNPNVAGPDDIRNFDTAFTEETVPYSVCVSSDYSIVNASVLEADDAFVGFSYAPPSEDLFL
How it was run: as §1

T4 sequence (Q86UX6 whole entry): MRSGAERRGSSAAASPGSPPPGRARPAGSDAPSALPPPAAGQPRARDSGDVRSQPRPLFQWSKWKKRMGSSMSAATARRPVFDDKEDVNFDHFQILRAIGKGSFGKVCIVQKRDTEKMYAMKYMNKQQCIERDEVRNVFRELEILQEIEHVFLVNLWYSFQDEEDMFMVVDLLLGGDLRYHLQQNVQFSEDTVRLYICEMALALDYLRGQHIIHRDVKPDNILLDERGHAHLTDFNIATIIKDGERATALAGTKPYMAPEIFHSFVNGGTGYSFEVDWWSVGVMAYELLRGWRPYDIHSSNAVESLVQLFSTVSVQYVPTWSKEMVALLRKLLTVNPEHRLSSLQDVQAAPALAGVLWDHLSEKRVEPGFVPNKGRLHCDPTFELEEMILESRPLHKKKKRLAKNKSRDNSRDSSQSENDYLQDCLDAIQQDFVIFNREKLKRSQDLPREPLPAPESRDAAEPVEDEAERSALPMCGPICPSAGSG

## C=CC(=O)Nc1cc(-c2cc(-c3cc4c([nH]3)CCNC4=O)ccn2)ccc1OC(F)(F)F [compound 11]
[1]; 10 nM
  inhibition at 0.01 µM: 6%
[1]; 100 nM
  inhibition at 0.1 µM: 11%
[1]; 1000 nM
  inhibition at 1 µM: 31%
[2]; 10 nM
  inhibition at 0.01 µM: 11%
[2]; 100 nM
  inhibition at 0.1 µM: 7%
[2]; 1000 nM
  inhibition at 1 µM: 2%
[3]; 10 nM
  inhibition at 0.01 µM: -6%
[3]; 100 nM
  inhibition at 0.1 µM: 13%
[3]; 1000 nM
  inhibition at 1 µM: 45%
[4]; 10 nM
  inhibition at 0.01 µM: 0%
[4]; 100 nM
  inhibition at 0.1 µM: 4%
[4]; 1000 nM
  inhibition at 1 µM: 1%
[5]; 10 nM
  inhibition at 0.01 µM: -8%
[5]; 100 nM
  inhibition at 0.1 µM: 2%
[5]; 1000 nM
  inhibition at 1 µM: -4%
